≈ marks a conversion by molar mass, not a printed value.
system: not listed separately; assay: Unbound AUClast in female C57BL/6J mouse lung at 30 mg/kg, po measured after 24 hrs by UPLC-MS/MS analysis; assay type: ADME, organism-based; conditions: in vivo

| fAUClast [h/ng/mL] | SMILES |
| --- | --- |
| 1071 | Cc1nc(-c2cnn(C)c2NC(=O)O[C@H](C)c2ccccc2Cl)ccc1NC(=O)[C@H]1CCCC[C@@H]1C(=O)O |
| 262 | Cc1noc(-c2ccc(NC(=O)[C@H]3CCCC[C@@H]3C(=O)O)cn2)c1NC(=O)O[C@H](C)c1ccccc1Cl |

system: not listed separately; assay: Total AUClast in female C57BL/6J mouse lung at 30 mg/kg, po measured after 24 hrs by UPLC-MS/MS analysis; assay type: ADME, organism-based; conditions: in vivo

| AUClast [h/ng/mL] | SMILES |
| --- | --- |
| 17100 | Cc1nc(-c2cnn(C)c2NC(=O)O[C@H](C)c2ccccc2Cl)ccc1NC(=O)[C@H]1CCCC[C@@H]1C(=O)O |
| 8000 | Cc1noc(-c2ccc(NC(=O)[C@H]3CCCC[C@@H]3C(=O)O)cn2)c1NC(=O)O[C@H](C)c1ccccc1Cl |

system: not listed separately; assay: Metabolic stability in human liver microsomes assessed as intrinsic clearance measured per mg of protein at 0.5 uM measured upto 45 mins in presence of NADPH regenerating system by HPLC-MS/MS analysis; assay type: ADME, Microsome; conditions: read-out: CLH

| microsomal CLint at 0.5 µM [µL/min/mg] | SMILES |
| --- | --- |
| 7 | Cc1nc(-c2cnn(C)c2NC(=O)O[C@H](C)c2ccccc2Cl)ccc1NC(=O)[C@H]1CCCC[C@@H]1C(=O)O |
| 6.3 | Cc1noc(-c2ccc(NC(=O)[C@H]3CCCC[C@@H]3C(=O)O)cn2)c1NC(=O)O[C@H](C)c1ccccc1Cl |

system: not listed separately; assay: Aqueous solubility of the compound at pH 7.4; assay type: physicochemical; conditions: buffer

| solubility [µM] | SMILES |
| --- | --- |
| 295 (≈ 159 µg/mL) | Cc1nc(-c2cnn(C)c2NC(=O)O[C@H](C)c2ccccc2Cl)ccc1NC(=O)[C@H]1CCCC[C@@H]1C(=O)O |
| 458 (≈ 242 µg/mL) | Cc1noc(-c2ccc(NC(=O)[C@H]3CCCC[C@@H]3C(=O)O)cn2)c1NC(=O)O[C@H](C)c1ccccc1Cl |

system: Mus musculus; assay: Inhibition of LPA-stimulated histamine release in male CD1 mouse plasma assessed as effective dose administered as po dose pretreated for 30 mins followed by LPA addition measured after 2 mins by enzyme immunoassay; assay type: functional; conditions: 32 min

| SMILES | ED50 [mg/kg] |
| --- | --- |
| Cc1noc(-c2ccc(NC(=O)[C@H]3CCCC[C@@H]3C(=O)O)cn2)c1NC(=O)O[C@H](C)c1ccccc1Cl | 0.1 |

target: Lysophosphatidic acid receptor 1 (Mus musculus, UniProt P61793); assay: Antagonist activity at mouse LPA1 transfected in human HeLa cells incubated for 30 mins by FLIPR-based calcium mobilization assay; assay type: cell-based; conditions: not given
Sequence (P61793 whole entry): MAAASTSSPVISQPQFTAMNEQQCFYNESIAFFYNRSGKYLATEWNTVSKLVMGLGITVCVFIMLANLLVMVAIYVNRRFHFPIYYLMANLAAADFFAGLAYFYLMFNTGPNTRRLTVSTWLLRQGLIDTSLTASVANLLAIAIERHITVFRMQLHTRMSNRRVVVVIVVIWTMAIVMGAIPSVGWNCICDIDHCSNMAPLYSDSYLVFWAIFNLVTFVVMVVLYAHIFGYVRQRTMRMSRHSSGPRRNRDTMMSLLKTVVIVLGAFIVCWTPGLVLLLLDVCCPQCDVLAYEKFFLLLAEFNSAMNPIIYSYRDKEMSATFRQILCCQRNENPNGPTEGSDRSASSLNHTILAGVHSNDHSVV

| IC50 [nM] | SMILES |
| --- | --- |
| 25.1 | Cc1nc(-c2cnn(C)c2NC(=O)O[C@H](C)c2ccccc2Cl)ccc1NC(=O)[C@H]1CCCC[C@@H]1C(=O)O |
| 31.6 | Cc1noc(-c2ccc(NC(=O)[C@H]3CCCC[C@@H]3C(=O)O)cn2)c1NC(=O)O[C@H](C)c1ccccc1Cl |

target: BSEP (Homo sapiens, UniProt O95342); assay: Inhibition of BSEP in cryopreserved sandwich-cultured human hepatocytes by measuring reduction in TCA biliary clearance using taurocholic acid as substrate at 50 uM relative to control; assay type: cell-based, Hepatocyte; conditions: cryopreserved sandwich-cultured hepatocytes, probe taurocholic acid
Sequence (O95342 whole entry): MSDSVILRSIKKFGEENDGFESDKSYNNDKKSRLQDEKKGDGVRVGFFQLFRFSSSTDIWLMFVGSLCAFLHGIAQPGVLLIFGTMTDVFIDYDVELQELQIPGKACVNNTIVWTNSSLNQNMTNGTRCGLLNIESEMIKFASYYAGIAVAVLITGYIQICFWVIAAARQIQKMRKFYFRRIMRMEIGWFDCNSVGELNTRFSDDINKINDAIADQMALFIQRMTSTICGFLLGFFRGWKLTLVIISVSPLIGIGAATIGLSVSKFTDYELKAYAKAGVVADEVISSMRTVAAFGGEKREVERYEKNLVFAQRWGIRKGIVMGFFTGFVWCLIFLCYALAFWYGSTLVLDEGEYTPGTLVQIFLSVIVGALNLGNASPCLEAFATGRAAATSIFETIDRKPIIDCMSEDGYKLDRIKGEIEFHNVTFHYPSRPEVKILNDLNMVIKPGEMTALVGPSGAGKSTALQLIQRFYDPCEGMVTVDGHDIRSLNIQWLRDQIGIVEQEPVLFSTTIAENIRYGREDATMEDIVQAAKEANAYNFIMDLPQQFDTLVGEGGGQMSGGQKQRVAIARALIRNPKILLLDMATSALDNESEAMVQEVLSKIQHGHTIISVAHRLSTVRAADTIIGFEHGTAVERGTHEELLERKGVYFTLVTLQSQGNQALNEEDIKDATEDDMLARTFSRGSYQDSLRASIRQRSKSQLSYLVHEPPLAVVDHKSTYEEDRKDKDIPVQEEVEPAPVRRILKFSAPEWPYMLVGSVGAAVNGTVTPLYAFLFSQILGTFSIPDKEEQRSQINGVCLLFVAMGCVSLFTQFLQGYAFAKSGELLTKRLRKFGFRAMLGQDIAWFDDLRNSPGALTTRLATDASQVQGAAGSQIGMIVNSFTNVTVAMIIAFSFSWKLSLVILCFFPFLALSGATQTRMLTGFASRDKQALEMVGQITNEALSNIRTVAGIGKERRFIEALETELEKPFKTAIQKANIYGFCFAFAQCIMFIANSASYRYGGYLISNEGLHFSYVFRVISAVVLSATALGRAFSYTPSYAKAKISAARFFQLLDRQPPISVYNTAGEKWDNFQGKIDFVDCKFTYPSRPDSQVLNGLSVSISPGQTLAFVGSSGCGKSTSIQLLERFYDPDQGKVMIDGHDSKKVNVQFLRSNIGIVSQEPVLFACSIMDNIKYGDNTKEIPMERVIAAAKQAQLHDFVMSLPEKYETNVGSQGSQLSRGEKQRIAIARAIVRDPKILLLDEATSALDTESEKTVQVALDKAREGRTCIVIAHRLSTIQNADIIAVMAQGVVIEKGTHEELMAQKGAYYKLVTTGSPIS

| SMILES | inhibition at 50 µM [%] |
| --- | --- |
| Cc1nc(-c2cnn(C)c2NC(=O)O[C@H](C)c2ccccc2Cl)ccc1NC(=O)[C@H]1CCCC[C@@H]1C(=O)O | 28 |
| Cc1noc(-c2ccc(NC(=O)[C@H]3CCCC[C@@H]3C(=O)O)cn2)c1NC(=O)O[C@H](C)c1ccccc1Cl | 50 |

system: not listed separately; assay: Unbound Cmax in female C57BL/6J mouse plasma at 30 mg/kg, po measured after 24 hrs by UPLC-MS/MS analysis; assay type: ADME, organism-based; conditions: in vivo

| fCmax [ng/mL] | SMILES |
| --- | --- |
| 1758 | Cc1nc(-c2cnn(C)c2NC(=O)O[C@H](C)c2ccccc2Cl)ccc1NC(=O)[C@H]1CCCC[C@@H]1C(=O)O |
| 749 | Cc1noc(-c2ccc(NC(=O)[C@H]3CCCC[C@@H]3C(=O)O)cn2)c1NC(=O)O[C@H](C)c1ccccc1Cl |

system: not listed separately; assay: Clearance in female C57BL/6J mouse at 2 mg/kg, iv measured after 24 hrs by UPLC-MS/MS analysis; assay type: ADME, organism-based; conditions: in vivo

| clearance [mL/min/kg] | SMILES |
| --- | --- |
| 2.99 | Cc1nc(-c2cnn(C)c2NC(=O)O[C@H](C)c2ccccc2Cl)ccc1NC(=O)[C@H]1CCCC[C@@H]1C(=O)O |
| 6.96 | Cc1noc(-c2ccc(NC(=O)[C@H]3CCCC[C@@H]3C(=O)O)cn2)c1NC(=O)O[C@H](C)c1ccccc1Cl |

system: not listed separately; assay: Lipophilicity, logD of compound at pH 7.4 by chromatographic hydrophobicity index method; assay type: physicochemical; conditions: buffer

| chromatographic logD | SMILES |
| --- | --- |
| 1.12 | Cc1nc(-c2cnn(C)c2NC(=O)O[C@H](C)c2ccccc2Cl)ccc1NC(=O)[C@H]1CCCC[C@@H]1C(=O)O |
| 1.52 | Cc1noc(-c2ccc(NC(=O)[C@H]3CCCC[C@@H]3C(=O)O)cn2)c1NC(=O)O[C@H](C)c1ccccc1Cl |

system: not listed separately; assay: Oral bioavailability in female C57BL/6J mouse at 2 mg/kg, iv measured after 24 hrs by UPLC-MS/MS analysis; assay type: ADME, organism-based; conditions: in vivo

| bioavailability [%] | SMILES |
| --- | --- |
| 49 | Cc1nc(-c2cnn(C)c2NC(=O)O[C@H](C)c2ccccc2Cl)ccc1NC(=O)[C@H]1CCCC[C@@H]1C(=O)O |
| 66 | Cc1noc(-c2ccc(NC(=O)[C@H]3CCCC[C@@H]3C(=O)O)cn2)c1NC(=O)O[C@H](C)c1ccccc1Cl |

system: not listed separately; assay: Total Cmax in female C57BL/6J mouse plasma at 30 mg/kg, po measured after 24 hrs by UPLC-MS/MS analysis; assay type: ADME, organism-based; conditions: not given

| Cmax [ng/mL] | SMILES |
| --- | --- |
| 54200 | Cc1nc(-c2cnn(C)c2NC(=O)O[C@H](C)c2ccccc2Cl)ccc1NC(=O)[C@H]1CCCC[C@@H]1C(=O)O |
| 26500 | Cc1noc(-c2ccc(NC(=O)[C@H]3CCCC[C@@H]3C(=O)O)cn2)c1NC(=O)O[C@H](C)c1ccccc1Cl |

system: not listed separately; assay: Tlast in female C57BL/6J mouse plasma at 30 mg/kg, po measured after 24 hrs by UPLC-MS/MS analysis; assay type: ADME, organism-based; conditions: in vivo

| Tlast [h] | SMILES |
| --- | --- |
| 8 | Cc1nc(-c2cnn(C)c2NC(=O)O[C@H](C)c2ccccc2Cl)ccc1NC(=O)[C@H]1CCCC[C@@H]1C(=O)O |
| 24 | Cc1noc(-c2ccc(NC(=O)[C@H]3CCCC[C@@H]3C(=O)O)cn2)c1NC(=O)O[C@H](C)c1ccccc1Cl |

system: not listed separately; assay: Unbound AUClast in female C57BL/6J mouse plasma at 30 mg/kg, po measured after 24 hrs by UPLC-MS/MS analysis; assay type: ADME, organism-based; conditions: in vivo

| fAUClast [h/ng/mL] | SMILES |
| --- | --- |
| 2621 | Cc1nc(-c2cnn(C)c2NC(=O)O[C@H](C)c2ccccc2Cl)ccc1NC(=O)[C@H]1CCCC[C@@H]1C(=O)O |
| 1249 | Cc1noc(-c2ccc(NC(=O)[C@H]3CCCC[C@@H]3C(=O)O)cn2)c1NC(=O)O[C@H](C)c1ccccc1Cl |

system: not listed separately; assay: Tlast in female C57BL/6J mouse lung at 30 mg/kg, po measured after 24 hrs by UPLC-MS/MS analysis; assay type: ADME, organism-based; conditions: in vivo

| Tlast [h] | SMILES |
| --- | --- |
| 8 | Cc1nc(-c2cnn(C)c2NC(=O)O[C@H](C)c2ccccc2Cl)ccc1NC(=O)[C@H]1CCCC[C@@H]1C(=O)O |
| 8 | Cc1noc(-c2ccc(NC(=O)[C@H]3CCCC[C@@H]3C(=O)O)cn2)c1NC(=O)O[C@H](C)c1ccccc1Cl |

system: not listed separately; assay: Total Cmax in female C57BL/6J mouse lung at 30 mg/kg, po measured after 24 hrs by UPLC-MS/MS analysis; assay type: ADME, organism-based; conditions: not given

| Cmax [ng/mL] | SMILES |
| --- | --- |
| 7950 | Cc1nc(-c2cnn(C)c2NC(=O)O[C@H](C)c2ccccc2Cl)ccc1NC(=O)[C@H]1CCCC[C@@H]1C(=O)O |
| 4230 | Cc1noc(-c2ccc(NC(=O)[C@H]3CCCC[C@@H]3C(=O)O)cn2)c1NC(=O)O[C@H](C)c1ccccc1Cl |

system: not listed separately; assay: Half life in female C57BL/6J mouse at 2 mg/kg, iv measured after 24 hrs by UPLC-MS/MS analysis; assay type: ADME, organism-based; conditions: in vivo

| half-life [h] | SMILES |
| --- | --- |
| 2.48 | Cc1nc(-c2cnn(C)c2NC(=O)O[C@H](C)c2ccccc2Cl)ccc1NC(=O)[C@H]1CCCC[C@@H]1C(=O)O |
| 0.69 | Cc1noc(-c2ccc(NC(=O)[C@H]3CCCC[C@@H]3C(=O)O)cn2)c1NC(=O)O[C@H](C)c1ccccc1Cl |

system: not listed separately; assay: Metabolic stability in female C57BL/6J mouse liver microsomes assessed as intrinsic clearance measured per mg of protein at 0.5 uM measured upto 45 mins in presence of NADPH regenerating system by HPLC-MS/MS analysis; assay type: ADME, Microsome; conditions: read-out: CLH

| microsomal CLint at 0.5 µM [µL/min/mg] | SMILES |
| --- | --- |
| < 2 | Cc1nc(-c2cnn(C)c2NC(=O)O[C@H](C)c2ccccc2Cl)ccc1NC(=O)[C@H]1CCCC[C@@H]1C(=O)O |
| 4 | Cc1noc(-c2ccc(NC(=O)[C@H]3CCCC[C@@H]3C(=O)O)cn2)c1NC(=O)O[C@H](C)c1ccccc1Cl |

target: Bile salt export pump (Homo sapiens, UniProt O95342); assay: Inhibition of BSEP in cryopreserved sandwich-cultured human hepatocytes by measuring reduction in TCA biliary clearance using taurocholic acid as substrate; assay type: cell-based, Hepatocyte; conditions: not given
Sequence (O95342 whole entry): as above

| SMILES | IC50 [nM] |
| --- | --- |
| Cc1nc(-c2cnn(C)c2NC(=O)O[C@H](C)c2ccccc2Cl)ccc1NC(=O)[C@H]1CCCC[C@@H]1C(=O)O | > 100000 |
| Cc1noc(-c2ccc(NC(=O)[C@H]3CCCC[C@@H]3C(=O)O)cn2)c1NC(=O)O[C@H](C)c1ccccc1Cl | 50100 |

system: not listed separately; assay: Unbound Cmax in female C57BL/6J mouse lung at 30 mg/kg, po measured after 24 hrs by UPLC-MS/MS analysis; assay type: ADME, organism-based; conditions: in vivo

| fCmax [ng/mL] | SMILES |
| --- | --- |
| 498 | Cc1nc(-c2cnn(C)c2NC(=O)O[C@H](C)c2ccccc2Cl)ccc1NC(=O)[C@H]1CCCC[C@@H]1C(=O)O |
| 139 | Cc1noc(-c2ccc(NC(=O)[C@H]3CCCC[C@@H]3C(=O)O)cn2)c1NC(=O)O[C@H](C)c1ccccc1Cl |

system: not listed separately; assay: Volume of distribution at steady state in female C57BL/6J mouse at 2 mg/kg, iv measured after 24 hrs by UPLC-MS/MS analysis; assay type: ADME, organism-based; conditions: in vivo, read-out: Vdss

| Vd [L/kg] | SMILES |
| --- | --- |
| 0.35 | Cc1nc(-c2cnn(C)c2NC(=O)O[C@H](C)c2ccccc2Cl)ccc1NC(=O)[C@H]1CCCC[C@@H]1C(=O)O |
| 0.24 | Cc1noc(-c2ccc(NC(=O)[C@H]3CCCC[C@@H]3C(=O)O)cn2)c1NC(=O)O[C@H](C)c1ccccc1Cl |

system: not listed separately; assay: Total AUClast in female C57BL/6J mouse plasma at 30 mg/kg, po measured after 24 hrs by UPLC-MS/MS analysis; assay type: ADME, organism-based; conditions: in vivo

| AUClast [h/ng/mL] | SMILES |
| --- | --- |
| 80800 | Cc1nc(-c2cnn(C)c2NC(=O)O[C@H](C)c2ccccc2Cl)ccc1NC(=O)[C@H]1CCCC[C@@H]1C(=O)O |
| 44200 | Cc1noc(-c2ccc(NC(=O)[C@H]3CCCC[C@@H]3C(=O)O)cn2)c1NC(=O)O[C@H](C)c1ccccc1Cl |

— ChEMBL document CHEMBL6153155, “Novel Cyclohexyl Amido Acid Antagonists of Lysophosphatidic Acid Type 1 Receptor for the Treatment of Pulmonary Fibrosis” (ACS Med Chem Lett, 2025)
